Experimental data: PMC6328587 (Nature Communications, 2019)

Assays:
α-tubulin = test: CETSA in MDA-MB-231 cell lysate, negative control protein; format: binding, human; conditions: 100 µM PROTAC, 51-55 °C, vs DMSO
Procedure: CETSA protocol was adapted from[60]. In all, 3 × 10^7 MDA-MB-231 cells (1 × 10^7 cells per condition) were collected and resuspended in ice-cold 1X PBS supplemented with 1X protease inhibitor cocktail (Roche) and lysed by three cycles of liquid nitrogen snap freeze, followed by 50% thaw in a room temperature water bath and an additional 50% thaw at 4 °C. After each freeze–thaw cycle, lysate was vortexed briefly to ensure homogenous thawing. Lysate was then cleared for 20 min by centrifugation (14,000 × g at 4 °C) and the soluble fraction was divided into three equal aliquots. The aliquots were treated with vehicle (2.5% DMSO), 100 µM SJFα, or 100 µM SJFδ and incubated at room temperature for 30 min with gentle rotation. Each aliquot was then divided (50 µL) into eight PCR tubes and individually heated at the indicated temperature for 3 min followed by cooling at room temperature for 3 min. After cooling, samples were spun down for 20 min (14,000 × g at 4 °C) and the supernatant (soluble fraction) was analyzed by SDS-PAGE and immunoblotted for p38δ and alpha-tubulin (negative control).

p38α = biological target: T1, p38α (Homo sapiens, UniProt Q16539); test: PROTAC washout assay, p38α; format: cell-based; conditions: 250 nM PROTAC for 24 h, then re-plated in fresh medium
T1 construct: SJFα PROTAC (13-atom linker, amide attachment) selectively degrades p38α; endogenous in cells; host or cells: MDA-MB-231
Procedure: (§1) MDA-MB-231 cells were plated at 1.5 × 10^5 cells per well in a six-well dish and allowed to adhere overnight. On the following day, all cells were treated with either vehicle (DMSO) or PROTAC (250 nM). After 24 h, cells were either harvested or washed with 1X PBS, trypsinized, and re-plated onto new six-well dishes in fresh RPMI-1640 (1 × ) media without additional compound. For these washout conditions, cells were collected every 24 h until final harvest (72 h washout).

FLAG-p38δ = biological target: T2, FLAG-p38δ (Homo sapiens, UniProt O15264); test: TUBE1 immunoprecipitation of poly-Ub p38δ in HeLa cells; format: cell-based; conditions: 1 µM PROTAC, 3 hours
T2 construct: expressed in transfected cells; host or cells: HeLa
T2 sequence (O15264 1-365): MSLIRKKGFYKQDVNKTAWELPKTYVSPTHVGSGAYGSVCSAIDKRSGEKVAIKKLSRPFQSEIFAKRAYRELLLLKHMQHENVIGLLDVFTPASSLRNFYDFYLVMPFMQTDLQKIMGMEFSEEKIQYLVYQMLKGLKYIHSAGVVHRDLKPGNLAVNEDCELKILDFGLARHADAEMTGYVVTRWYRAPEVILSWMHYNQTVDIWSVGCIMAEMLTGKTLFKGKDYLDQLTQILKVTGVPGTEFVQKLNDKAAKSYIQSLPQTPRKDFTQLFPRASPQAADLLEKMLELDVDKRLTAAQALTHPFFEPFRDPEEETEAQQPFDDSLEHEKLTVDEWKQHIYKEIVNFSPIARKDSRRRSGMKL
Procedure: TUBE1 immunoprecipitation experiments were carried out exactly as described above, except for the fact that 1 mg of normalized HeLa lysate was loaded onto 20 µL TUBE1 agarose (LifeSensors) resin per sample.
WCL IP : TU B E 1 DMS SJF SJF
Supplementary Figure 7. SJFδ in d u ces p o lyu b iq u itin atio n o f p 38δ(related to F ig u re 4).
HeLa cells were co-transfected with HA-Ub and FLAG p38δ and treated with vehicle (DM SO ), 1 µM SJFα, or 1 µM SJFδ for 3 hours. Lysates were im m unoprecipitated with tandem ubiquitin binding entity (TUBE1) agarose beads and assessed by western blots detecting FLAG (p38δ).
TUBE1 binds tetra ubiquitin chains with high affinity, thereby enriching for polyubiquitinated proteins. In this assay, HA (Ub) serves as an im m unoprecipitation control for poly-Ub TUBE1 […]

p38δ = biological target: T3, p38δ (Homo sapiens, UniProt O15264); test: PROTAC washout assay, p38δ; format: cell-based; conditions: 250 nM PROTAC for 24 h, then re-plated in fresh medium
T3 construct: endogenous in cells; host or cells: MDA-MB-231
T3 sequence (O15264 1-365): T2 sequence (O15264 1-365)
Procedure: as §1

T1 sequence (Q16539 whole entry): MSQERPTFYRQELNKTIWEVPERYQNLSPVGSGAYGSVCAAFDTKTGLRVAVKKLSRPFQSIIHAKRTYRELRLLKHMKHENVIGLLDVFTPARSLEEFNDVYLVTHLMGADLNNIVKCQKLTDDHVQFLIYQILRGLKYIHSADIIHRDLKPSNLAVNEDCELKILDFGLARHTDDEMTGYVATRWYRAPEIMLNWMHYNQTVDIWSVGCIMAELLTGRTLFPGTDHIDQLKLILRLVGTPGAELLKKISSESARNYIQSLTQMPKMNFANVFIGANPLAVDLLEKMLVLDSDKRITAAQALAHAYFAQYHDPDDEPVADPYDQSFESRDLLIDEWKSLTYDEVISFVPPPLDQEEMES

Row | Compound | thermal shift of α-tubulin (α-tubulin) | time p38α degradation efficacy is maintained post-washout (p38α) [h] | TUBE1-reactivity (poly-Ub p38δ) (FLAG-p38δ) | time p38δ degradation efficacy is maintained post-washout (p38δ) [h]
1 | COc1cc2c(Oc3ccc(NC(=O)C4(C(=O)Nc5ccc(F)cc5)CC4)cc3F)ccnc2cc1OCCCCOCCCCOCC(=O)N[C@H](C(=O)N1C[C@H](O)C[C@H]1C(=O)NCc1ccc(-c2scnc2C)cc1)C(C)(C)C [SJFα] | thermal shifts were not seen | 72 |  | 
2 | COc1cc2c(Oc3ccc(NC(=O)C4(C(=O)Nc5ccc(F)cc5)CC4)cc3F)ccnc2cc1OCCOCCOCCOc1cc(-c2scnc2C)ccc1CNC(=O)[C@@H]1C[C@@H](O)CN1C(=O)[C@H](C(C)C)N1Cc2ccccc2C1=O [SJFδ] | thermal shifts were not seen |  | increased TUBE1-reactivity | 24
